Experimental data reported in PubChem BioAssay AID248 (DTP/NCI, 2004).
Values joined by “and” are separate entries in the source; they are usually repeats but may differ in a detail not shown here. Equal values may be shown once. Inconclusive results and toxic doses are left out. Cut-off read from the data, not from the text of the source: active = T/C of 150% or more; inactive = T/C below 125%.

Tested on: L1210 leukemia ip in BDF1 mice, survival T/C
Test: NCI In Vivo Anticancer Drug Screen. Data for tumor model L1210 Leukemia (intraperitoneal) in B6D2F1 (BDF1) mice
Conditions: endpoint: mean survival time, higher = longer survival
Outline: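 Tumor cells were implanted, animals were treated, and survival was followed. The result divides the treated measurement by the vehicle-control measurement.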

[1] = dose: 100.0 mg/kg/injection, schedule: Q04DX003 (ip), vehicle: Klucel (hydroxypropylcellulose) (HPC)
[2] = dose: 200.0 mg/kg/injection, schedule: Q04DX003 (ip), vehicle: Klucel (hydroxypropylcellulose) (HPC)
[3] = dose: 400.0 mg/kg/injection, schedule: Q04DX003 (ip), vehicle: Klucel (hydroxypropylcellulose) (HPC)
[4] = dose: 100.0 mg/kg/injection, schedule: Q01DX009 (ip), vehicle: saline
[5] = dose: 100.0 mg/kg/injection, schedule: Q04DX003 (ip), vehicle: saline with Tween-80
[6] = dose: 200.0 mg/kg/injection, schedule: Q01DX009 (ip), vehicle: saline
[7] = dose: 200.0 mg/kg/injection, schedule: Q04DX003 (ip), vehicle: saline with Tween-80
[8] = dose: 400.0 mg/kg/injection, schedule: Q01DX009 (ip), vehicle: saline
[9] = dose: 400.0 mg/kg/injection, schedule: Q04DX003 (ip), vehicle: saline with Tween-80
[10] = dose: 100.0 mg/kg/injection, schedule: Q04DX003 (ip), vehicle: saline
[11] = dose: 200.0 mg/kg/injection, schedule: Q04DX003 (ip), vehicle: saline
[12] = dose: 400.0 mg/kg/injection, schedule: Q04DX003 (ip), vehicle: saline
[13] = dose: 100.0 mg/kg/injection, schedule: Q01DX009 (ip), vehicle: saline with Tween-80
[14] = dose: 200.0 mg/kg/injection, schedule: Q01DX009 (ip), vehicle: saline with Tween-80
[15] = dose: 400.0 mg/kg/injection, schedule: Q01DX009 (ip), vehicle: saline with Tween-80
[16] = dose: 100.0 mg/kg/injection, schedule: Q01DX001 (ip), vehicle: carboxymethylcellulose (CMC)
[17] = dose: 200.0 mg/kg/injection, schedule: Q01DX001 (ip), vehicle: carboxymethylcellulose (CMC)
[18] = dose: 400.0 mg/kg/injection, schedule: Q01DX001 (ip), vehicle: carboxymethylcellulose (CMC)
[19] = dose: 100.0 mg/kg/injection, schedule: Q01DX001 (ip), vehicle: other
[20] = dose: 200.0 mg/kg/injection, schedule: Q01DX001 (ip), vehicle: other
[21] = dose: 400.0 mg/kg/injection, schedule: Q01DX001 (ip), vehicle: other

Measured: T/C

COc1cccc2c1N=c1c(Cl)c3c(c(Cl)c1O2)=Nc1c(OC)cccc1O3
inactive: [1] 106 % of control | [2] 102 % of control | [3] 113 % of control

CN(C)CCCC(=O)O
inactive: [4] 89 % of control | [5] 106 % of control | [6] 97 % of control | [7] 95 % of control | [8] 95 % of control | [9] 88 % of control

Nc1ccccc1CCCC(=O)O
inactive: [4] 95 % of control | [10] 104 % of control | [6] 90 % of control | [11] 98 % of control | [8] 105 % of control | [12] 93 % of control

Oc1ccc(C2N(c3ccccc3)CCN2c2ccccc2)cc1
inactive: [13] 111 % of control | [5] 92 % of control | [14] 103 % of control | [7] 97 % of control | [15] 89 % of control | [9] 101 % of control

N#CCCC1CCCCC1=O (configuration not stated)
inactive: dose: 75.0 mg/kg/injection, schedule: Q01DX001 (ip), vehicle: other 97 % of control | [13] 94 % of control | [5] 98 % of control | dose: 150.0 mg/kg/injection, schedule: Q01DX001 (ip), vehicle: other 100 % of control | [14] 96 % of control | [7] 96 % of control | dose: 300.0 mg/kg/injection, schedule: Q01DX001 (ip), vehicle: other 100 % of control | [9] 102 % of control

CCOP(=O)(OCC)N1CC1c1ccccc1 (configuration not stated)
inactive: dose: 75.0 mg/kg/injection, schedule: Q01DX001 (ip), vehicle: carboxymethylcellulose (CMC) 114 % of control

CC(CCl)OP(=O)(Cc1ccccc1)OC(C)CCl (configuration not stated)
inactive: dose: 100.0 mg/kg/injection, schedule: Q04DX002 (ip), vehicle: saline with Tween-80 91 % of control | dose: 200.0 mg/kg/injection, schedule: Q04DX002 (ip), vehicle: saline with Tween-80 98 % of control | dose: 400.0 mg/kg/injection, schedule: Q04DX002 (ip), vehicle: saline with Tween-80 98 % of control

CCOC(=O)CC(=O)c1ccccc1SC
inactive: [5] 102 % of control | [7] 100 % of control | [9] 91 % of control

Cc1ccnc(-n2c(N)cc(=O)[nH]c2=S)c1
inactive: dose: 100.0 mg/kg/injection, schedule: Q04DX002 (ip), vehicle: saline 102 % of control | dose: 200.0 mg/kg/injection, schedule: Q04DX002 (ip), vehicle: saline 107 % of control | dose: 400.0 mg/kg/injection, schedule: Q04DX002 (ip), vehicle: saline 107 % of control

CN(C)c1ccc(N=Nc2ccccc2)c2cccnc12
inactive: dose: 6.25 mg/kg/injection, schedule: Q01DX009 (ip), vehicle: DMSO 103 % of control | dose: 12.5 mg/kg/injection, schedule: Q01DX009 (ip), vehicle: DMSO 94 % of control | dose: 25.0 mg/kg/injection, schedule: Q01DX009 (ip), vehicle: DMSO 96 % of control | dose: 50.0 mg/kg/injection, schedule: Q01DX009 (ip), vehicle: DMSO 92 % of control | dose: 100.0 mg/kg/injection, schedule: Q01DX009 (ip), vehicle: DMSO 96 % of control | dose: 100.0 mg/kg/injection, schedule: Q04DX003 (ip), vehicle: DMSO 94 % of control | dose: 200.0 mg/kg/injection, schedule: Q04DX003 (ip), vehicle: DMSO 88 % of control | dose: 400.0 mg/kg/injection, schedule: Q04DX003 (ip), vehicle: DMSO 90 % of control

CC(=O)OCC1OC(OC(C)=O)C(NC(=O)N(C)C)C(OC(C)=O)C1OC(C)=O (configuration not stated)
inactive: dose: 50.0 mg/kg/injection, schedule: Q04DX003 (ip), vehicle: saline 103 % of control | [1] 101 % of control | [10] 106 % of control | [2] 103 % of control | [11] 101 % of control | [3] 103 % of control

CCOC(CCCN=CN(C)C)OCC
inactive: [10] 102 % of control | [11] 100 % of control | [12] 102 % of control

CC1=NNC(=O)C1Br (configuration not stated)
inactive: [16] 105 % of control | [17] 102 % of control | [18] 100 % of control

c1ccc2c(c1)CCc1ccccc1CC2
inactive: dose: 100.0 mg/kg/injection, schedule: Q01DX009 (ip), vehicle: Klucel (hydroxypropylcellulose) (HPC) 93 % of control | dose: 200.0 mg/kg/injection, schedule: Q01DX009 (ip), vehicle: Klucel (hydroxypropylcellulose) (HPC) 96 % of control | dose: 400.0 mg/kg/injection, schedule: Q01DX009 (ip), vehicle: Klucel (hydroxypropylcellulose) (HPC) 90 % of control

CCC(C)C(CN)(CCN(C)CC)c1cccc2ccccc12 (configuration not stated)
inactive: [5] 90 % of control

COC(C)(C)C(N)C(=O)O (configuration not stated)
inactive: [19] 102 % of control | dose: 100.0 mg/kg/injection, schedule: Q04DX003 (ip), vehicle: other 120 % of control | [20] 102 % of control | dose: 200.0 mg/kg/injection, schedule: Q04DX003 (ip), vehicle: other 114 % of control | [21] 102 % of control | dose: 400.0 mg/kg/injection, schedule: Q04DX003 (ip), vehicle: other 96 % of control

Cc1nnc2sc(C(=O)O)nn12
inactive: dose: 100.0 mg/kg/injection, schedule: Q01DX001 (ip), vehicle: saline 90 % of control | dose: 200.0 mg/kg/injection, schedule: Q01DX001 (ip), vehicle: saline 93 % of control | dose: 400.0 mg/kg/injection, schedule: Q01DX001 (ip), vehicle: saline 96 % of control

COC(=O)C(C(=O)OC)C(c1ccccc1)C(Br)(C(=O)OC)C(=O)OC (configuration not stated)
inactive: [13] 102 % of control | [14] 94 % of control

CC(C)C(Br)C(=O)NC(Cc1ccccc1)C(=O)O (configuration not stated)
inactive: [13] 96 % of control | [14] 96 % of control | [15] 92 % of control

COC(=O)N1C(c2ccccc2)CS1(=O)=O (configuration not stated)
inactive: dose: 25.0 mg/kg/injection, schedule: Q04DX002 (ip), vehicle: Klucel (hydroxypropylcellulose) (HPC) 106 % of control | dose: 50.0 mg/kg/injection, schedule: Q04DX002 (ip), vehicle: Klucel (hydroxypropylcellulose) (HPC) 113 % of control | dose: 100.0 mg/kg/injection, schedule: Q04DX002 (ip), vehicle: Klucel (hydroxypropylcellulose) (HPC) 97 % of control and 109 % of control

CCSC(SCC)C(SCC)C(OC(=O)c1ccccc1)C(OC(=O)c1ccccc1)C(COC(=O)c1ccccc1)OC(=O)c1ccccc1 (configuration not stated)
inactive: [16] 114 % of control | [17] 112 % of control | [18] 93 % of control

c1ccn2cncc2c1
inactive: dose: 75.0 mg/kg/injection, schedule: Q01DX001 (ip), vehicle: saline 95 % of control | dose: 150.0 mg/kg/injection, schedule: Q01DX001 (ip), vehicle: saline 106 % of control | dose: 300.0 mg/kg/injection, schedule: Q01DX001 (ip), vehicle: saline 102 % of control

c1cc(Sc2ccc(OCC3CO3)cc2)ccc1OCC1CO1 (configuration not stated)
inactive: [19] 94 % of control | [20] 97 % of control | [21] 92 % of control

O=C(Nc1cccc2ccccc12)Nc1cccc2ccccc12
inactive: [16] 95 % of control | [17] 90 % of control | [18] 92 % of control
